BindingDB's records for patent US20240018140 (Merck Sharp & Dohme, 2024)

Molecular target: T1, Ceramide glucosyltransferase (Homo sapiens, UniProt Q16739)
T1 sequence (Q16739 whole entry): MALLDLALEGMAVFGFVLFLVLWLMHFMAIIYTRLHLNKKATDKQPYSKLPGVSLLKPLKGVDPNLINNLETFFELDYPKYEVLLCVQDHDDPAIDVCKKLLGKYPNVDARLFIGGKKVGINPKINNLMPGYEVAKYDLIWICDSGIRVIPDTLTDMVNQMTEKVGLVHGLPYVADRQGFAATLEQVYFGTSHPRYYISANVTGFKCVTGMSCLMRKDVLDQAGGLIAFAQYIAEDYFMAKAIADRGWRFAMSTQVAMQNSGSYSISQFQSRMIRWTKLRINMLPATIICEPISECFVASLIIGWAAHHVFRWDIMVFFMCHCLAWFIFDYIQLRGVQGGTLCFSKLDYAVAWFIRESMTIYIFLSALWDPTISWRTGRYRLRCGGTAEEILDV
Assay: UDP-Glo Glucosylceramide Synthase Biochemical Assay
Description: Using Promega's UDP-Glo Glycosyltransferase assay kit (Promega Corporation, Madison, WI, USA (Promega)), GCS activity was indirectly measured by detecting the amount of UDP produced. An aliquot of GCS enzyme (1.5 μg crude golgi preparation, total protein) and titrated test compound were aliquoted to each well and incubated for 30 minutes at room temperature. […] An equivalent volume of substrate mixture was then added to each well. Following a 20 h incubation at room temperature to allow for GCS turnover of substrate, an equal volume of UDP detection reagent (Promega) was added to each well and incubated for an additional 75 minutes at room temperature to simultaneously convert the accumulated UDP product into ATP and generate light in a luciferase reaction. The generated light was detected using a luminometer.

Row | EC50 | SMILES
1 | 2.4 nM | COCC1(NC(=O)c2cn3cc(Cl)cc(-c4ccccc4OCC(F)(F)F)c3n2)CC1 [US20240018140, Compound 6]
2 | 1.2 nM | CN1CCN(C(=O)c2cn3cc(Cl)cc(-c4ccccc4OCC(F)(F)F)c3n2)CC1(C)C [US20240018140, Compound 7]
